# In US8778923B2, “GLP-1 receptor modulators” (Receptos, Inc., priority 2011, dated 2014):
# Where a name gives a salt, the structure may show the parent alone.
# Biological target: T1, GLP-1R (Homo sapiens, UniProt P43220)
# T1 construct: host or cells: CRE-bla CHO-K1
# Experiment: EC20 GLP-1(9-36) PAM cAMP assay: dose response of compound in the presence of fixed concentration of GLP-1(9-36)
# Type: cell-based
# Conditions: GLP-1R CRE-bla CHO-K1 cells, compound dose response in presence of fixed concentration of GLP-1(9-36)
# In short: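 GLP-1R CRE-bla CHO-K1 cells in HBSS/10 mM Hepes/0.1% BSA pH 7.4 with IBMX got a 12-point compound dose response plus fixed EC20 GLP-1(9-36), 30 min at 37 °C. cAMP measured by HitHunter luminescence against a standard curve; EC50 and Emax by non-linear regression.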
# T1 sequence (P43220 24-463): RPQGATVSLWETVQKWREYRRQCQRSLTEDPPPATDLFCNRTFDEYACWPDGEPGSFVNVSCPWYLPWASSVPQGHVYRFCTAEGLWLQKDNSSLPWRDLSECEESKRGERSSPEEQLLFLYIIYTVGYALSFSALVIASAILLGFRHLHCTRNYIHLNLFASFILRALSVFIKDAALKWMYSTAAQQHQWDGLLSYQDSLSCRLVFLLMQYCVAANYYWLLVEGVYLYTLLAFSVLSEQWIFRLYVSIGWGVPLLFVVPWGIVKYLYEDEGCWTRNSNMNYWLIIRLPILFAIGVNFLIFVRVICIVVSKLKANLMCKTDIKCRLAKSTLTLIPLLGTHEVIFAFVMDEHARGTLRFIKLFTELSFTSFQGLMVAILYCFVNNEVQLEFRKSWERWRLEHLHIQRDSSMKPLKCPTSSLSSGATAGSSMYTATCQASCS
# T1 sequence (P01275 100-127 partner limits assumed): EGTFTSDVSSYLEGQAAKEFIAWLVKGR
row,SMILES,EC50 [nM]
1,CCCCCCCOc1ccc(-c2ccc(-c3ccc(C[C@H](NC(=O)c4ccc(C(C)(C)C)s4)C(=O)O)cc3)nn2)cc1 [Compound 279],5000 to 10000
2,CC(C)(C)c1ccc(-c2cnc(-c3ccc(C[C@H](NC(=O)c4ccc(C(C)(C)C)s4)C(=O)O)cc3)cn2)cc1 [Compound 282],800 to 2500
3,CCCCCCCOc1ccc(-c2ccc(-c3ccc(C[C@H](NC(=O)c4ccc(C(C)(C)C)s4)C(=O)NCC(=O)O)cc3)nn2)cc1 [Compound 283],5000 to 10000
4,CCCCCCCOc1ccc(-c2cnc(-c3ccc(C[C@H](NC(=O)c4ccc(C(C)(C)C)s4)C(=O)NCC(=O)O)cc3)cn2)cc1 [Compound 284],800 to 2500
5,"CCCCCCCOc1ccc(-c2c[nH]c(-c3ccc(C[C@H](NC(=O)c4ccc(C(C)(C)C)cc4)C(=O)O)cc3)n2)cc1 [Compound 286, (S)-2-(4-(tert-butyl)benzamido)-3-(4-(4-(4-(heptyloxy)phenyl)-1H-imidazol-2-yl)phenyl)propanoic acid hydrochloride]",2500 to 5000
6,"Cc1ccc(-c2ccc(-n3cc(-c4ccc(C[C@H](NC(=O)c5ccc(C(C)(C)C)cc5)C(=O)O)cc4)cn3)cc2)cc1 [Compound 288, (S)-2-(4-(tert-butyl)benzamido)-3-(4-(1-(4′-methyl-[1,1′-biphenyl]-4-yl)-1H-pyrazol-4-yl)phenyl)propanoic acid]",2500 to 5000
7,"CCCCCCCOc1ccc(-c2cnc(-c3ccc(C[C@H](NC(=O)c4ccc(C(C)(C)C)cc4)C(=O)O)cc3)nc2OC)cc1 [Compound 292, (S)-2-(4-(tert-butyl)benzamido)-3-(4-(5-(4-(heptyloxy)phenyl)-4-methoxypyrimidin-2-yl)phenyl)propanoic acid]",800 to 2500
8,CCCCCCCOc1ccc(-c2cnc(-c3ccc(C[C@H](NC(=O)c4ccc(C(C)(C)C)cc4)C(=O)O)cc3)nc2N(C)C)cc1 [Compound 293],2500 to 5000
9,CCCCCCCOc1ccc(-c2cnc(-c3ccc(C[C@H](NC(=O)c4ccc(C(C)(C)C)cc4)C(=O)O)cc3)cc2C)cc1 [Compound 294],800 to 2500
10,CCCCCCCOc1ccc(-c2cnc(-c3ccc(C[C@H](NC(=O)c4coc(C(C)(C)C)n4)C(=O)O)cc3)nc2)cc1 [Compound 296],800 to 2500
11,"CCCCCCCOc1ccc(-c2cnc(-c3ccc(C[C@H](NC(=O)c4ccc(C(C)(C)C)cc4)C(=O)NS(C)(=O)=O)cc3)nc2)cc1 [Compound 299, (S)-4-(tert-butyl)-N-(3-(4 (5 (4 (heptyloxy)phenyl)pyrimidin-2-yl)phenyl)-1-(methylsulfonamido)-1-oxopropan-2-yl)benzamide]",< 800
12,CCCCCCCOc1ccc(-c2cnc(-c3ccc(C[C@H](NC(=O)c4ccc(C(C)(C)C)cc4)C(=O)NCCCC(=O)O)cc3)nc2)cc1 [Compound 301],800 to 2500
13,CCCCCCCOc1ccc(-c2cnc(-c3ccc(C[C@H](NC(=O)c4ccc(C(C)(C)C)cc4)C(=O)N(C)CCC(=O)O)cc3)nc2)cc1 [Compound 302],2500 to 5000
14,CCCCCCCOc1ccc(-c2cnc(-c3ccc(C[C@H](NC(=O)c4ccc(C(C)C)cc4)C(=O)N[C@@H](C)C(=O)O)cc3)nc2)cc1 [Compound 305],800 to 2500
15,CCCCCCCOc1ccc(-c2cnc(-c3ccc(C[C@H](NC(=O)c4ccc(C(C)C)cc4)C(=O)N[C@@H](CC(N)=O)C(=O)O)cc3)nc2)cc1 [Compound 306],< 800
16,CCCCCCCOc1ccc(-c2cnc(-c3ccc(C[C@H](NC(=O)c4ccc(C(C)C)cc4)C(=O)N[C@@H](CC(=O)O)C(=O)O)cc3)nc2)cc1 [Compound 307],800 to 2500
17,CCCCCCCOc1ccc(-c2cnc(-c3ccc(C[C@H](NC(=O)c4ccc(C(C)C)cc4)C(=O)N[C@@H](CC(C)C)C(=O)O)cc3)nc2)cc1 [Compound 308],800 to 2500
18,CCCCCCCOc1ccc(-c2cnc(-c3ccc(C[C@H](NC(=O)c4ccc(C(C)C)cc4)C(=O)N[C@@H](CO)C(=O)O)cc3)nc2)cc1 [Compound 309],< 800
19,CCCCCCCOc1ccc(-c2cnc(-c3ccc(C[C@H](NC(=O)c4ccc(C(C)C)cc4)C(=O)N[C@@H](Cc4cnc[nH]4)C(=O)O)cc3)nc2)cc1 [Compound 311],800 to 2500
20,CCCCCCCOc1ccc(-c2cnc(-c3ccc(C[C@H](NC(=O)c4ccc(C(C)C)cc4)C(=O)N[C@H](CC(C)C)C(=O)O)cc3)nc2)cc1 [Compound 313],800 to 2500
21,CCCCCCCOc1ccc(-c2cnc(-c3ccc(C[C@H](NC(=O)c4ccc(C(C)C)cc4)C(=O)N[C@H](CCCCN)C(=O)O)cc3)nc2)cc1 [Compound 314],800 to 2500
22,CCCCCCCOc1ccc(-c2cnc(-c3ccc(C[C@H](NC(=O)c4ccc(C(C)C)cc4)C(=O)NCC(=O)O)cc3)nc2)cc1 [Compound 317],< 800
23,CCCCCCOc1ccc(-c2cnc(-c3ccc(C[C@H](NC(=O)c4ccc(C(C)(C)C)cc4)C(=O)NCC(=O)O)cc3)nc2)cc1 [Compound 318],< 800
24,"CCCCCCCOc1ccc(-c2cnc(-c3ccc(C[C@H](NC(=O)c4ccc(C(C)(C)C)s4)C(=O)NCC(=O)O)cc3)nc2)cc1 [Compound 319, (S)-(2-(5-(tert-butyl)thiophene-2-carboxamido)-3-(4-(5-(4-(heptyloxy)phenyl)pyrimidin-2-yl)phenyl)propanoyl)glycine]",< 800
25,"CCCCCCCOc1ccc(-c2cnc(-c3ccc(C[C@H](NC(=O)c4ccc(C(C)(C)C)s4)C(=O)N[C@@H](CCC(N)=O)C(=O)O)cc3)nc2)cc1 [Compound 320, ((S)-2-(5-(tert-butyl)thiophene-2-carboxamido)-3-(4-(5-(4-(heptyloxy)phenyl)pyrimidin-2-yl)phenyl)propanoyl)-L-glutamine]",< 800
26,CCCCCCCOc1ccc(-c2cnc(-c3ccc(C[C@H](NC(=O)c4ccc(C(C)(C)C)s4)C(=O)N[C@H](CO)C(=O)O)cc3)nc2)cc1 [Compound 323],< 800
27,CCCCCCCOc1ccc(-c2cnc(-c3ccc(C[C@H](NC(=O)c4ccc(C(C)(C)C)s4)C(=O)N[C@H](Cc4cnc[nH]4)C(=O)O)cc3)nc2)cc1 [Compound 325],5000 to 10000
28,CCCCCCCOc1ccc(-c2cnc(-c3ccc(C[C@H](NC(=O)c4ccc(C(C)(C)C)s4)C(=O)N[C@@H](CO)C(=O)O)cc3)nc2)cc1 [Compound 326],< 800

# The next lines start with the values.
row,EC50 [nM],SMILES
1,2500 to 5000,CC(C)(C)c1ccc(-c2ccc(-c3ccc(C[C@H](NC(=O)c4ccc(C(C)(C)C)s4)C(=O)O)cc3)nn2)cc1 [Compound 280]
2,< 800,CCCCCCCOc1ccc(-c2cnc(-c3ccc(C[C@H](NC(=O)c4ccc(C(C)(C)C)s4)C(=O)O)cc3)cn2)cc1 [Compound 281]
3,800 to 2500,CCCCCCCOc1ccc(-c2ccc(-c3ccc(C[C@H](NC(=O)c4ccc(C(C)(C)C)s4)C(=O)NCC(=O)O)cc3)nc2)cc1 [Compound 285]
4,5000 to 10000,"CCCCCCCOc1ccc(-n2cnc(-c3ccc(C[C@H](NC(=O)c4ccc(C(C)(C)C)cc4)C(=O)O)cc3)c2)cc1 [Compound 287, (S)-2-(4-(tert-butyl)benzamido)-3-(4-(1-(4-(heptyloxy)phenyl)-1H-imidazol-4-yl)phenyl)propanoic acid]"
5,800 to 2500,"CCCCCCCOc1ccc(-c2cnc(-c3ccc(C[C@@H](CC(=O)O)NC(=O)c4ccc(C(C)(C)C)cc4)cc3)nc2)cc1 [Compound 291, (S)-3-(4-(tert-butyl)benzamido)-4-(4-(5-(4-(heptyloxy)phenyl)pyrimidin-2-yl)phenyl)butanoic acid]"
6,800 to 2500,CCCCCCCOc1ccc(-c2cnc(-c3ccc(C[C@H](NC(=O)c4ccc(C(C)(C)C)cc4)C(=O)O)cc3)cc2C(F)(F)F)cc1 [Compound 295]
7,< 800,"CCCCCCCOc1ccc(-c2cnc(-c3ccc(C[C@H](NC(=O)c4ccc(C(C)(C)C)cc4)C(=O)NCC(=O)O)cc3)nc2)cc1 [Compound 297, (S)-(2-(4-(tert-butyl)benzamido)-3-(4-(5-(4-(heptyloxy)phenyl)pyrimidin-2-yl)phenyl)propanoyl)glycine]"
8,< 800,"CCCCCCCOc1ccc(-c2cnc(-c3ccc(C[C@H](NC(=O)c4ccc(C(C)(C)C)cc4)C(=O)NCCC(=O)O)cc3)nc2)cc1 [Compound 298, (S)-3-(2-(4-(tert-butyl)benzamido)-3-(4-(5-(4-(heptyloxy)phenyl)pyrimidin-2-yl)phenyl)propanamido)propanoic acid]"
9,< 800,CCCCCCCOc1ccc(-c2cnc(-c3ccc(C[C@H](NC(=O)c4ccc(C(C)(C)C)cc4)C(=O)N[C@@H](CC(N)=O)C(=O)O)cc3)nc2)cc1 [Compound 300]
10,800 to 2500,CCCCCCCOc1ccc(-c2cnc(-c3ccc(C[C@H](NC(=O)c4ccc(C(C)(C)C)cc4)C(=O)NCC(=O)Nc4nn[nH]n4)cc3)nc2)cc1 [Compound 303]
11,800 to 2500,CCCCCCCOc1ccc(-c2cnc(-c3ccc(C[C@H](NC(=O)c4ccc(C(C)(C)C)cc4)C(=O)N(C)CC(=O)O)cc3)nc2)cc1 [Compound 304]
12,< 800,CCCCCCCOc1ccc(-c2cnc(-c3ccc(C[C@H](NC(=O)c4ccc(C(C)C)cc4)C(=O)N[C@@H](CCCCN)C(=O)O)cc3)nc2)cc1 [Compound 310]
13,800 to 2500,CCCCCCCOc1ccc(-c2cnc(-c3ccc(C[C@H](NC(=O)c4ccc(C(C)C)cc4)C(=O)N[C@H](C)C(=O)O)cc3)nc2)cc1 [Compound 312]
14,800 to 2500,CCCCCCCOc1ccc(-c2cnc(-c3ccc(C[C@H](NC(=O)c4ccc(C(C)C)cc4)C(=O)N[C@H](CO)C(=O)O)cc3)nc2)cc1 [Compound 315]
15,< 800,CCCCCCCOc1ccc(-c2cnc(-c3ccc(C[C@H](NC(=O)c4ccc(C(C)C)cc4)C(=O)N[C@H](Cc4cnc[nH]4)C(=O)O)cc3)nc2)cc1 [Compound 316]
16,< 800,CCCCCCCOc1ccc(-c2cnc(-c3ccc(C[C@H](NC(=O)c4ccc(C(C)(C)C)s4)C(=O)N[C@@H](CC(N)=O)C(=O)O)cc3)nc2)cc1 [Compound 321]
17,800 to 2500,CCCCCCCOc1ccc(-c2cnc(-c3ccc(C[C@H](NC(=O)c4ccc(C(C)(C)C)s4)C(=O)N[C@@H](CC(=O)O)C(=O)O)cc3)nc2)cc1 [Compound 322]
18,800 to 2500,CCCCCCCOc1ccc(-c2cnc(-c3ccc(C[C@H](NC(=O)c4ccc(C(C)(C)C)s4)C(=O)N[C@H](CC(=O)O)C(=O)O)cc3)nc2)cc1 [Compound 324]
